Where a SMILES comes first, the peptide text is derived from it. Bridges are numbered along the chain shown (N, C = ends). [ ]: non-standard residue; d: D form. The star is where a group is joined. Trp(1-CH2COOH) = N[C@@H](Cc1cn(CC(=O)O)c2ccccc12)C(=O)O; X22 = Cc1ccc2c(c1)[nH]c1nc(Cl)nc(*)c12; Hyp = O=C(O)[C@@H]1C[C@@H](O)CN1; X10 = c1ccc2c(c1)sc1ncnc(*)c12; X16 = c1ccc2c(c1)sc1c(*)ncnc12; X2 = CSc1nc(*)c2sc3ccccc3c2n1; X5 = c1ccc2c(c1)oc1c(*)ncnc12; NMeNle = CCCC[C@H](NC)C(=O)O; X4 = c1nc(*)c2c3c(sc2n1)CCC3; NMeA = CN[C@@H](C)C(=O)O; Dab = NCC[C@H](N)C(=O)O; Dap = NC[C@H](N)C(=O)O
Each compound was assayed against T1, PD-1/PD-L1 interaction (PD-1-Ig / PD-L1-His) (Homo sapiens, UniProt Q9NZQ7) (assay: PD-1/PD-L1 Homogenous Time-Resolved Fluorescence (HTRF) binding assay). Conditions: PD-L1-His 10 nM final, PD-1-Ig 20 nM final; inhibitors pre-incubated with PD-L1-His for 15 m.
T1 construct: TVMV protease site (linker) (C); made in house; host or cells: HEK293T cells
T1 sequence (Q9NZQ7 18-239): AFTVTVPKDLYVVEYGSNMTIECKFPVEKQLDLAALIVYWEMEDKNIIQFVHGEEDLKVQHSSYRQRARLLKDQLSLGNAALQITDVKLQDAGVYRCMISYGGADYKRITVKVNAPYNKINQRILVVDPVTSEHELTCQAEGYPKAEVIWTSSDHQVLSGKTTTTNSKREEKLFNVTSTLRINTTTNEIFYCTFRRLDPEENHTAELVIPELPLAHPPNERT
Description: The ability of the compounds of formula (I) to bind to PD-L1 was investigated using a PD-1/PD-L1 Homogenous Time-Resolved Fluorescence (HTRF) binding assay.
The interaction of PD-1 and PD-L1 can be assessed using soluble, purified preparations of the extracellular domains of the two proteins. The PD-1 and PD-L1 protein extracellular domains were expressed as fusion proteins with detection tags, for PD-1, the tag was the Fc portion of Immunoglobulin (PD-1-Ig) and for PD-L1 it was the 6 histidine motif (PD-L1-His). All binding studies were performed in an HTRF assay buffer consisting of dPBS supplemented with 0.1% […] bovine serum albumin and 0.05% (v/v) Tween-20. For the h/PD-L1-His binding assay, inhibitors were pre-incubated with PD-L1-His (10 nM final) for 15 m in 4 μl of assay buffer, followed by addition of PD-1-Ig (20 nM final) in 1 μl of assay buffer and further incubation for 15 m. HTRF detection was achieved using europium crypate-labeled anti-Ig (1 nM final) and allophycocyanin (APC) labeled anti-His (20 nM final). Antibodies were diluted in HTRF detection buffer and 5 μl was dispensed on top of the binding reaction. The reaction mixture was allowed to equilibrate for 30 minutes and the resulting signal (665 nm/620 nm ratio) was obtained using an EnVision fluorometer. Additional binding assays were established between the human proteins PD-1-Ig/PD-L2-His (20 & 5 nM, respectively) and CD80-His/PD-L1-Ig (100 & 10 nM, respectively).
Recombinant Proteins: Human PD-1 (25-167) with a C-terminal human Fc domain of immunoglobulin G (Ig) epitope tag [hPD-1 (25-167)-3S-IG] and human PD-L1 (18-239) with a C-terminal His epitope tag [hPD-L1(18-239)-TVMV-His] were expressed in HEK293T cells and purified sequentially by ProteinA affinity chromatography and size exclusion chromatography. Human PD-L2-His and CD80-His was obtained through commercial sources.
Table 1 lists the IC50 values for representative examples of this disclosure measured in the PD-1/PD-L1 Homogenous Time-Resolved Fluorescence (HTRF) binding assay.

IC50 | SMILES
4.4 nM | CCCC[C@H]1C(=O)N(C)[C@@H](CCCC)C(=O)N[C@@H](CC(C)C)C(=O)N[C@H](C(=O)NCC(N)=O)CSCC(=O)N[C@@H](Cc2ccc(O)cc2)C(=O)N(C)[C@@H](C)C(=O)N[C@@H](CC(N)=O)C(=O)N2CCC[C@H]2C(=O)N[C@@H](CNc2nc(Cl)nc3[nH]c4cc(C)ccc4c23)C(=O)N[C@@H](CC(C)C)C(=O)N2C[C@H](O)C[C@H]2C(=O)N[C@@H](Cc2c[nH]c3ccccc23)C(=O)N[C@@H](CCN)C(=O)N[C@@H](Cc2cn(CC(=O)O)c3ccccc23)C(=O)N1C [Compound 21007] ({CH2CO}-Y[NMeA]NP[Dap](X22)L[Hyp]W[Dab][Trp(1-CH2COOH)][NMeNle][NMeNle]LCG-NH2; thioether N-14)
6.5 nM | CCCC[C@H]1C(=O)N(C)[C@@H](CCCC)C(=O)N[C@@H](CC(C)C)C(=O)N[C@H](C(=O)NCC(N)=O)CSCC(=O)N[C@@H](Cc2ccc(O)cc2)C(=O)N(C)[C@@H](C)C(=O)N[C@@H](CC(N)=O)C(=O)N2CCC[C@H]2C(=O)N[C@@H](CNc2nc(SC)nc3c2sc2ccccc23)C(=O)N[C@@H](CC(C)C)C(=O)N2C[C@H](O)C[C@H]2C(=O)N[C@@H](Cc2c[nH]c3ccccc23)C(=O)N[C@@H](CCN)C(=O)N[C@@H](Cc2cn(CC(=O)O)c3ccccc23)C(=O)N1C [Compound 21008] ({CH2CO}-Y[NMeA]NP[Dap](X2)L[Hyp]W[Dab][Trp(1-CH2COOH)][NMeNle][NMeNle]LCG-NH2; thioether N-14)
136 nM | CCCC[C@H]1C(=O)N(C)[C@@H](CCCC)C(=O)N[C@@H](CC(C)C)C(=O)N[C@H](C(=O)NCC(N)=O)CSCC(=O)N[C@@H](Cc2ccc(O)cc2)C(=O)N(C)[C@@H](C)C(=O)N[C@@H](CC(N)=O)C(=O)N2CCC[C@H]2C(=O)N[C@@H](CNc2nc(SC)nc3c2sc2ccccc23)C(=O)N[C@@H](CC(C)C)C(=O)N2C[C@H](O)C[C@H]2C(=O)N[C@@H](Cc2c[nH]c3ccccc23)C(=O)N[C@@H](CCNc2nc(SC)nc3c2sc2ccccc23)C(=O)N[C@@H](Cc2cn(CC(=O)O)c3ccccc23)C(=O)N1C [Compound 21009] ({CH2CO}-Y[NMeA]NP[Dap](X2)L[Hyp]W[Dab](X2)[Trp(1-CH2COOH)][NMeNle][NMeNle]LCG-NH2; thioether N-14)
3.9 nM | CCCC[C@H]1C(=O)N(C)[C@@H](CCCC)C(=O)N[C@@H](CC(C)C)C(=O)N[C@H](C(=O)NCC(N)=O)CSCC(=O)N[C@@H](Cc2ccc(O)cc2)C(=O)N(C)[C@@H](C)C(=O)N[C@@H](CC(N)=O)C(=O)N2CCC[C@H]2C(=O)N[C@@H](CNc2ncnc3c2oc2ccccc23)C(=O)N[C@@H](CC(C)C)C(=O)N2C[C@H](O)C[C@H]2C(=O)N[C@@H](Cc2c[nH]c3ccccc23)C(=O)N[C@@H](CCNc2ncnc3c2oc2ccccc23)C(=O)N[C@@H](Cc2cn(CC(=O)O)c3ccccc23)C(=O)N1C [Compound 21010] ({CH2CO}-Y[NMeA]NP[Dap](X5)L[Hyp]W[Dab](X5)[Trp(1-CH2COOH)][NMeNle][NMeNle]LCG-NH2; thioether N-14)
2.6 nM | CCCC[C@H]1C(=O)N(C)[C@@H](CCCC)C(=O)N[C@@H](CC(C)C)C(=O)N[C@H](C(=O)NCC(N)=O)CSCC(=O)N[C@@H](Cc2ccc(O)cc2)C(=O)N(C)[C@@H](C)C(=O)N[C@@H](CC(N)=O)C(=O)N2CCC[C@H]2C(=O)N[C@@H](CNc2ncnc3sc4c(c23)CCC4)C(=O)N[C@@H](CC(C)C)C(=O)N2C[C@H](O)C[C@H]2C(=O)N[C@@H](Cc2c[nH]c3ccccc23)C(=O)N[C@@H](CCN)C(=O)N[C@@H](Cc2cn(CC(=O)O)c3ccccc23)C(=O)N1C [Compound 21011] ({CH2CO}-Y[NMeA]NP[Dap](X4)L[Hyp]W[Dab][Trp(1-CH2COOH)][NMeNle][NMeNle]LCG-NH2; thioether N-14)
14 nM | CCCC[C@H]1C(=O)N(C)[C@@H](CCCC)C(=O)N[C@@H](CC(C)C)C(=O)N[C@H](C(=O)NCC(N)=O)CSCC(=O)N[C@@H](Cc2ccc(O)cc2)C(=O)N(C)[C@@H](C)C(=O)N[C@@H](CC(N)=O)C(=O)N2CCC[C@H]2C(=O)N[C@@H](CNc2ncnc3sc4c(c23)CCC4)C(=O)N[C@@H](CC(C)C)C(=O)N2C[C@H](O)C[C@H]2C(=O)N[C@@H](Cc2c[nH]c3ccccc23)C(=O)N[C@@H](CCNc2ncnc3sc4c(c23)CCC4)C(=O)N[C@@H](Cc2cn(CC(=O)O)c3ccccc23)C(=O)N1C [Compound 21012] ({CH2CO}-Y[NMeA]NP[Dap](X4)L[Hyp]W[Dab](X4)[Trp(1-CH2COOH)][NMeNle][NMeNle]LCG-NH2; thioether N-14)
3.4 nM | CCCC[C@H]1C(=O)N(C)[C@@H](CCCC)C(=O)N[C@@H](CC(C)C)C(=O)N[C@H](C(=O)NCC(N)=O)CSCC(=O)N[C@@H](Cc2ccc(O)cc2)C(=O)N(C)[C@@H](C)C(=O)N[C@@H](CC(N)=O)C(=O)N2CCC[C@H]2C(=O)N[C@@H](CNc2ncnc3c2oc2ccccc23)C(=O)N[C@@H](CC(C)C)C(=O)N2C[C@H](O)C[C@H]2C(=O)N[C@@H](Cc2c[nH]c3ccccc23)C(=O)N[C@@H](CCN)C(=O)N[C@@H](Cc2cn(CC(=O)O)c3ccccc23)C(=O)N1C [Compound 21013] ({CH2CO}-Y[NMeA]NP[Dap](X5)L[Hyp]W[Dab][Trp(1-CH2COOH)][NMeNle][NMeNle]LCG-NH2; thioether N-14)
5.7 nM | CCCC[C@H]1C(=O)N(C)[C@@H](CCCC)C(=O)N[C@@H](CC(C)C)C(=O)N[C@H](C(=O)NCC(N)=O)CSCC(=O)N[C@@H](Cc2ccc(O)cc2)C(=O)N(C)[C@@H](C)C(=O)N[C@@H](CC(N)=O)C(=O)N2CCC[C@H]2C(=O)N[C@@H](CNc2ncnc3c2sc2ccccc23)C(=O)N[C@@H](CC(C)C)C(=O)N2C[C@H](O)C[C@H]2C(=O)N[C@@H](Cc2c[nH]c3ccccc23)C(=O)N[C@@H](CCNc2ncnc3c2sc2ccccc23)C(=O)N[C@@H](Cc2cn(CC(=O)O)c3ccccc23)C(=O)N1C [Compound 21014] ({CH2CO}-Y[NMeA]NP[Dap](X16)L[Hyp]W[Dab](X16)[Trp(1-CH2COOH)][NMeNle][NMeNle]LCG-NH2; thioether N-14)
18 nM | CCCC[C@H]1C(=O)N(C)[C@@H](CCCC)C(=O)N[C@@H](CC(C)C)C(=O)N[C@H](C(=O)NCC(N)=O)CSCC(=O)N[C@@H](Cc2ccc(O)cc2)C(=O)N(C)[C@@H](C)C(=O)N[C@@H](CC(N)=O)C(=O)N2CCC[C@H]2C(=O)N[C@@H](CNc2ncnc3sc4ccccc4c23)C(=O)N[C@@H](CC(C)C)C(=O)N2C[C@H](O)C[C@H]2C(=O)N[C@@H](Cc2c[nH]c3ccccc23)C(=O)N[C@@H](CCNc2ncnc3sc4ccccc4c23)C(=O)N[C@@H](Cc2cn(CC(=O)O)c3ccccc23)C(=O)N1C [Compound 21015] ({CH2CO}-Y[NMeA]NP[Dap](X10)L[Hyp]W[Dab](X10)[Trp(1-CH2COOH)][NMeNle][NMeNle]LCG-NH2; thioether N-14)

Reference: US20230022400A1, “IMMUNOMODULATORS” (Bristol-Myers Squibb Company, priority 2019, published 2023)
